Assay results reported in ChEMBL document CHEMBL1201862, “PubChem BioAssay data set” (2004).
Calls of active or inactive are those of the source. Cut-off read from the data, not from the text of the source, for most assays here: actives have a measured EC50 and inactives only a lower limit.

How the values were obtained:
[1] = Luminescence Cell-Based Dose Confirmation HTS to Identify Activators of 5'UTR Stem-Loop Driven Alpha-Synuclein mRNA Translation in H4 Neuroglioblastoma Cells. [Related pubchem assays: 1829 (Project Summary), 1814 (Primary HTS)]; type: functional
[2] = Luminescence Cell-Based Dose Response HTS to Identify Activators of Luciferase Translation or Activity in H4 […] Cells. [Related pubchem assays: 1829 (Project Summary), 1814 (Primary HTS)]; type: functional
H4 = assay: Luminescence Cell-Based Dose Response HTS to Identify Activators of 5'UTR Stem-Loop Driven Prion Protein mRNA Translation in H4 Neuroglioblastoma Cells. [Related pubchem assays: 1829 (Project Summary), 1814 (Primary HTS)]; type: functional; conditions: Homo sapiens
cells [3] = type: functional, cell-based
cells [4] = type: functional, cell-based; remark: listed apart in the source
Streptokinase A = target: T1, Streptokinase A (Streptococcus pyogenes serotype M1, UniProt P10520); assay: S. pyogenes streptokinase expression inhibitors, potency, dose response, plasminogen activation absorbance, OD405 (AID 1914); type: functional, Streptococcus pyogenes M1 GAS;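 note: secreted streptokinase activity via plasminogen activation per viability signal from cell pellet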
T1 sequence (P10520 whole entry): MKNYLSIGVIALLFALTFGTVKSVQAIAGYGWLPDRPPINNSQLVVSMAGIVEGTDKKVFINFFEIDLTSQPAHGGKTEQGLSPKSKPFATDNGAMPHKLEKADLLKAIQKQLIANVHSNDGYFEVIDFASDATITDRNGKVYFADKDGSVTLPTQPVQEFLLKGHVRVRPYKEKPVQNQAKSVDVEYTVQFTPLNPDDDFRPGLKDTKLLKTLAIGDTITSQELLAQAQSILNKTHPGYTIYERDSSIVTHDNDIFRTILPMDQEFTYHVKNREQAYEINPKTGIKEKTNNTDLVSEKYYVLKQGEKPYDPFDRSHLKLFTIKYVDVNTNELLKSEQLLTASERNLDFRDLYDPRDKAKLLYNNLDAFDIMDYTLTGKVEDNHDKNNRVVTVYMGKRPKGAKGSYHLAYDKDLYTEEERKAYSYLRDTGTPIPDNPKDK

Streptococcus = assay: Group A Streptococcus viability loss, dose response, counter-screen for streptokinase expression inhibitor project, luminescence, BacTiterGlo (AID 1915); type: functional, organism-based;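 note: potency for reduction of bacterial viability or growth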
[5] = system: Streptococcus sp. 'group A'; assay: growth inhibition of control SK(-) GAS strain, dose response, counter-screen for streptokinase expression inhibitor project, luminescence, kanamycin, BacTiterGlo, confirmation (AID 1900); type: functional, organism-based
[6] = target: T2, Calpain-2 catalytic subunit (Sus scrofa, UniProt P43367); assay: pig calpain II inhibitor potency, dose response, biochemical, fluorogenic peptide substrate (AID 1420); type: functional
T2 sequence (P43367 whole entry): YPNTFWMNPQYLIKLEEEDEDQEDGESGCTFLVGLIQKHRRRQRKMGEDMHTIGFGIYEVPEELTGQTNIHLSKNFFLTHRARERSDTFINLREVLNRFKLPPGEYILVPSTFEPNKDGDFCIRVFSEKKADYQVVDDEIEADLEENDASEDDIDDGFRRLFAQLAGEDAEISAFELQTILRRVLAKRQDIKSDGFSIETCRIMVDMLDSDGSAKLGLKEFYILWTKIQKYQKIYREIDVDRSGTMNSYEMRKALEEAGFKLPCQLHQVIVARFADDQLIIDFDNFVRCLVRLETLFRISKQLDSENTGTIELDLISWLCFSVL

[7] = microbe, parasite or virus in culture; type: functional; conditions: Mycobacterium tuberculosis
INS1 = assay: beta cell apoptosis inhibitors, cytokine rescue, dose response, luminescence, retest (AID 449756); type: functional, cell-based; conditions: Rattus norvegicus;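 note: cell death triggered by IL-1 beta plus TNF-alpha plus IFN-gamma mixture; protective hits raise ATP signal compared with cytokine alone wells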
[8] = NIH-3T3 fibroblast cytotoxicity, dose response, cytotoxicity control, cell-based, fluorescence, Alamar Blue, secondary assay (AID 2327); type: functional;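 note: NIH-3T3 mouse fibroblasts cultured with fluconazole at 8 µg/mL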
[9] = cytotoxicity toward NIH3T3 fibroblasts, dose response, counter-screen, cell-based, ATP luminescence, mouse fibroblasts (AID 2010); type: functional;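 note: cells exposed to compound for about 90 hours before reading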
[10] = inhibitors of intracellular T. cruzi replication, confirmation, NIH3T3 host cells, beta-gal luminescence (AID 2044); type: functional, cell-based;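 note: intracellular parasites grown in NIH/3T3 mouse fibroblasts as host cells; luminescent beta-galactosidase reporter signal from transgenic T. cruzi replicating inside host cells; inhibitors lower the luminescence signal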
[11] = C. albicans growth with fluconazole, confirmation, fluorescence, retest (AID 2467); type: functional, cell-based
Protein RecA = target: T3, Protein RecA (Mycobacterium tuberculosis, UniProt P9WHJ3); assay: Fluorescence Cell-Free Homogeneous Dose Retest to Identify Inhibitors of RecA-Intein Splicing Activity. [Related pubchem assays (depositor defined):AID2097, AID2223, AID489010, AID492950]; type: functional
T3 sequence (P9WHJ3 whole entry): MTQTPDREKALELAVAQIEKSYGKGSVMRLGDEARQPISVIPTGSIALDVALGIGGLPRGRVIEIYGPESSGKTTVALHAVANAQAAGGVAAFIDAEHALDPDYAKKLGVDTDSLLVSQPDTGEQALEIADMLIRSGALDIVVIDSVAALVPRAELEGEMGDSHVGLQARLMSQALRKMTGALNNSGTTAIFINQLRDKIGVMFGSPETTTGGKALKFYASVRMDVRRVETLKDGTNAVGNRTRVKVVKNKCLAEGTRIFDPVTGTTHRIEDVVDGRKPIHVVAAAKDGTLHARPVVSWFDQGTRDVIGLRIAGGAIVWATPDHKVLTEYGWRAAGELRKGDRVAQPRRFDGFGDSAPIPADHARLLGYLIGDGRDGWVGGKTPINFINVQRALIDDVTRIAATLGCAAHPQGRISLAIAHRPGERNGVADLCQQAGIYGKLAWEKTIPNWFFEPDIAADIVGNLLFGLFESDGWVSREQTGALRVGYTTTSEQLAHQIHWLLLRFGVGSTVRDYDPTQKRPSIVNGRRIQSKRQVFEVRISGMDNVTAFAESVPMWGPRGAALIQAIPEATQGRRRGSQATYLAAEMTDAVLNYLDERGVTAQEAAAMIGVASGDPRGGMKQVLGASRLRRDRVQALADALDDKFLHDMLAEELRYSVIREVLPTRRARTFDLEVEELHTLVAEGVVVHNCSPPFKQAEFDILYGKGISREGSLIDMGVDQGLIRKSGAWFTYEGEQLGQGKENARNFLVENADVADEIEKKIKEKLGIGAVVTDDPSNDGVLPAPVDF

[12] = target: T4, Replicative DNA helicase DnaB (Mycobacterium tuberculosis, UniProt P9WMR3); assay: DnaB intein splicing inhibitors, dose response, biochemical, cell-free fluorescence (AID 449749); type: functional
T4 sequence (P9WMR3 whole entry): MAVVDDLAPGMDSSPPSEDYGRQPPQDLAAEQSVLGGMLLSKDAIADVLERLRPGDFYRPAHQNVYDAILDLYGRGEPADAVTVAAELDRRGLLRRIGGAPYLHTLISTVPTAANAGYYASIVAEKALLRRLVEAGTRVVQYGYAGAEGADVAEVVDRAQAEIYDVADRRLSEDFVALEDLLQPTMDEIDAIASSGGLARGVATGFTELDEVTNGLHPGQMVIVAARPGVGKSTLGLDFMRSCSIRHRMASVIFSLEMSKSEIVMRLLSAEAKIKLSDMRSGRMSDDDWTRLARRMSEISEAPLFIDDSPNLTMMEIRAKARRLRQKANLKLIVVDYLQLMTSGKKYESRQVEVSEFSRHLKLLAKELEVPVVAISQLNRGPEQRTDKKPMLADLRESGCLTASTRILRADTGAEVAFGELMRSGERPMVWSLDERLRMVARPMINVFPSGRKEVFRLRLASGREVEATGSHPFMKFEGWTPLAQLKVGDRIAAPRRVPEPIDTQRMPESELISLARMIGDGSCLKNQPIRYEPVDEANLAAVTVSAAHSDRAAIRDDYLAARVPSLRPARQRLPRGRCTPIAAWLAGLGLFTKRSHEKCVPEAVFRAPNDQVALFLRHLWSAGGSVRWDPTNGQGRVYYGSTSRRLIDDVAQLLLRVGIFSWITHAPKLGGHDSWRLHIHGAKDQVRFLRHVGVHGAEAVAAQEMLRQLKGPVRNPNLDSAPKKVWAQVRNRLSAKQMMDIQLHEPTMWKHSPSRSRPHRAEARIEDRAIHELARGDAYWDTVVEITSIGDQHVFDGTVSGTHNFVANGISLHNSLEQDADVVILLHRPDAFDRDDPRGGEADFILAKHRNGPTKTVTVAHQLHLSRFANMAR

SMILES: CNC(=O)C1CCN(S(=O)(=O)c2c(C)noc2/C=C/c2ccccc2F)CC1
- EC50 [1]: 21.8 µM (active)
- EC50 [2]: 12.8 µM (active)
- EC50 (H4): > 120 µM (not active)

SMILES: N#C/C(=C(/O)c1ccc(F)cc1)c1nc2ccccc2s1
- EC50 (cells [3]): 7.41 µM (active)
- EC50 (cells [4]): > 350 µM (not active)

SMILES: CC(C)C[C@H](NC(=O)c1[nH]cnc1C(=O)N[C@H](C)c1ccccc1)C(=O)OC(C)(C)C
- EC50 (Streptokinase A): > 150 µM (not active)
- EC50 (Streptococcus): 9.3 µM (active)
- EC50 [5]: 3.86 µM (active)
- IC50 [6]: 11.7 µM (not active)

SMILES: O=C(c1ccc(OC2CCN(CCc3ccccc3)CC2)cc1)N1CCCC(CCCO)C1 (stereo unspecified)
- EC50 (cells [3]): > 350 µM (not active)
- EC50 (cells [4]): > 350 µM (not active)

SMILES: O=C(Cn1c(Cc2ccccc2)nc2ccccc21)NCc1ccc2c(c1)OCO2
- EC50 (cells [3]): > 350 µM (not active)
- EC50 (cells [4]): > 350 µM (not active)

SMILES: COc1ccc(N2/C(=N/C(=O)CCC3CCCC3)SC3CS(=O)(=O)CC32)cc1 (stereo unspecified)
- EC50 (cells [3]): > 350 µM (not active)
- EC50 (cells [4]): > 350 µM (not active)

SMILES: Cc1ccc(-c2nc3nc4ccccc4nc3n2Cc2ccco2)cc1
- EC50 [1]: 21.9 µM (active)
- EC50 [2]: 13.2 µM (active)

SMILES: O=C(NCCCC1CCCC1)C1CCC(=O)N(Cc2cccc(F)c2)C1 (stereo unspecified)
- EC50 [1]: > 120 µM (not active)
- EC50 [2]: > 120 µM (not active)
- EC50 (H4): > 120 µM (not active)

SMILES: O=C(O)C1CC=CCC1C(=O)N1CCN(c2nc(-c3ccccc3Cl)c3cc(Br)ccc3n2)CC1 (stereo unspecified)
- CC50 [7]: 38.3 µM (active)

SMILES: Cn1c(CO)nc2c3ccccc3ccc21
- EC50 (cells [3]): > 350 µM (not active)
- EC50 (cells [4]): > 350 µM (not active)

SMILES: O=C(c1cccc(C(F)(F)F)c1)C1CCCN(C(=O)Cn2cncn2)C1 (stereo unspecified)
- EC50 (cells [3]): > 350 µM (not active)
- EC50 (cells [4]): > 350 µM (not active)

SMILES: CCc1ccc(NC(=S)/N=C(\N)Nc2nc(C)c3cc(CC)ccc3n2)cc1
- CC50 [7]: 17.4 µM (active)

SMILES: CCOc1ccc(/C=N/Nc2ccc(Cl)nn2)c(O)c1
- AC50 (INS1): 1.77 µM (active)
- CC50 [7]: 18.4 µM (active)

SMILES: Cc1ccc(S(=O)(=O)N(C)CC(=O)NCCCn2ccnc2)cc1
- EC50 (cells [3]): > 350 µM (not active)
- EC50 (cells [4]): > 350 µM (not active)

SMILES: CN(C)c1ccc(/C=N/NC(=S)NCc2ccco2)cc1
- EC50 [1]: 15.3 µM (active)
- EC50 [2]: 8.41 µM (active)
- EC50 (H4): > 120 µM (not active)

SMILES: CCOC(=O)c1ccccc1NC(=O)COc1coc(CN2CCc3ccccc32)cc1=O
- CC50 [7]: > 40 µM (active)

SMILES: CC(=O)N1CCOc2ccc(S(=O)(=O)N3CCCCC3)cc21
- EC50 [1]: > 120 µM (not active)
- EC50 [2]: > 120 µM (not active)
- EC50 (H4): > 120 µM (not active)

SMILES: O=C(Nc1nc(-c2ccccn2)cs1)c1ccc(S(=O)(=O)N2CCCCC2)cc1
- EC50 (Streptococcus): 2.56 µM (active)
- EC50 [5]: 0.879 µM (active)
- EC50 (cells [3]): > 350 µM (not active)
- EC50 (cells [4]): 13.4 µM (active)

SMILES: Cc1ccc(NC2=NC(=O)c3cccc([N+](=O)[O-])c32)cc1
- EC50 [1]: 77.8 µM (active)
- EC50 [2]: 26.7 µM (active)
- EC50 (H4): 26.8 µM (active)

SMILES: COc1ccc(NC(=O)CSc2nc(O)c3c(n2)CCC3)cc1OC
- EC50 (cells [3]): > 350 µM (not active)
- EC50 (cells [4]): > 350 µM (not active)

SMILES: CCc1ccc2oc(-c3ccc(OC)cc3)cc(=Nc3c(C)n(C)n(-c4ccccc4)c3=O)c2c1
- EC50 [8]: > 160 µM (inactive)
- CC50 [7]: 27.6 µM (active)
- EC50 [9]: > 60 µM (not active)
- EC50 [10]: 1.94 µM (active)
- EC50 [11]: > 38 µM (not active)

SMILES: Cc1cccc(N2CCN(CCCNC(=O)c3ccc(NC(=O)C4=CSCCO4)cc3)CC2C)c1 (stereo unspecified)
- CC50 [7]: > 40 µM (active)

SMILES: CN(Cc1cccs1)C(=O)CSc1nc(N)cc(N)n1
- EC50 (cells [3]): > 350 µM (not active)
- EC50 (cells [4]): > 350 µM (not active)

SMILES: CSc1ccccc1N=C(S)NCc1ccc(Cl)cc1
- EC50 [1]: 4.54 µM (active)
- EC50 [2]: 5.76 µM (active)
- EC50 (H4): 9.9 µM (active)

SMILES: CCOC(=O)c1c(NC(=O)CCl)sc(CN(C)C)c1-c1ccccc1
- CC50 [7]: 12.5 µM (active)
- EC50 (Protein RecA): 7.5 µM (active)
- AC50 [12]: 20.4 µM (active)

SMILES: CCOC(=O)/C(=N/Nc1ccc(OC)cc1)N1CCCc2ccccc21
- CC50 [7]: > 40 µM (active)
